Laboratory results as given in patent US5356882A, “Antiviral pyrimidine nucleosides” (University of Birmingham, priority 1989, dated 1994).
Blank lines part the entries; values can stand above or below the compound they belong to.

Experiments:
HSV1 = experiment: Anti-HSV Activity, plaque reduction assay in Vero cells (HSV-1 strain SC16); assay type: cell-based, Herpes Simplex Virus type 1 (strain SC16)
Protocol: (§1) Herpes Simplex Virus types 1 (HSV 1) and 2 (HSV2) were assayed in monolayers of Vero cells in multiwell trays. The virus strains used were SC16 and 186 for HSV-1 and HSV-2 respectively. Activity of compounds was determined in the plaque reduction assay, in which a cell monolayer was infected with a suspension of the appropirate HSV, and then overlaid with nutrient agarose in the form of a gel to ensure that there was no spread of virus throughout the culture. A range of concentrations of compound of known molarity was incorporated in the nutrient agarose overlay. Plaque numbers at each concentration were expressed as percentages of the control and a dose-response curve was drawn. From this curve the 50% inhibitory concentration (IC50) was estimated to be 0.66 μm for the compound of formula (I) in which X represents a 2-bromovinyl group.

HSV2 = experiment: Anti-HSV Activity, plaque reduction assay in Vero cells (HSV-2 strain 186); assay type: cell-based, Herpes Simplex Virus type 2 (strain 186)
Protocol: as §1

[1] = CCID50 (Table 1; method not described); assay type: cell-based
[2] = toxicity / therapeutic index (general statement); conditions: statement in words
VZV = experiment: Anti-VZV Activity, plaque reduction assay in MRC-5 cells; assay type: cell-based, varicella zoster virus (clinical isolates); conditions: Human alphaherpesvirus 3, MRC5, MRC-5 cells, clinical isolates
Protocol: Clinical isolates of varicella zoster virus (VZV) were assayed in monolayers of MRC-5 cells. MRC-5 cells are derived from human embyonic lung tissue. A plaque reduction assay was used in which a suspension Of the virus stock was used to infect monolayers of the cells in multiwell trays. a range of concentrations of the compound under test of known molarity was added to the wells. Plaque numbers at each concnetration were expressed as percentages of the control and a dose response curve was constructed. From these curves the 50% inhibitory concentration of each drug was determined.

IC50 (HSV1; Vero cells, strain SC16, plaque reduction): ~2300 nM
IC50 (HSV2; Vero cells, strain 186, plaque reduction): > 10000 nM
Structure (SMILES): Nc1nc(=O)n([C@H]2C[C@H](O)[C@@H](CO)S2)cc1/C=C/Br [CH=CHBr, NH2, 2'-Deoxy-5-E-(2-bromovinyl)-4'-thiocytidine]

Structure (SMILES): O=c1[nH]c(=O)n([C@H]2C[C@H](O)[C@@H](CO)S2)cc1/C=C/Br [CH=CHBr, OH, E-5-(2-bromovinyl)-2'-deoxy-4'-thiouridine]
CC50 [1]: > 500000 nM

Structure (SMILES): Cc1cn([C@H]2C[C@H](O)[C@@H](CO)S2)c(=O)[nH]c1=O [β-4'-thio-thymidine]
activity against HSV1 (HSV1; statement in words): good activity
activity against HSV2 (HSV2; statement in words): good activity
toxicity [2]: toxic

Structure (SMILES): CCc1cn([C@H]2C[C@H](O)[C@@H](CO)S2)c(=O)[nH]c1=O [CH2 CH3, OH, 2'-Deoxy-5-ethyl-4'thiouridine]
IC50 (VZV): 790 nM
